According to PubChem BioAssay (NCI):
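Test compounds were applied to cells in 96-well plates for 48 hours at 5 doses. GI50 marks 50% less growth. The concentration for full growth arrest is given as TGI.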 Where a SMILES comes first, the peptide text is derived from it. [ ]: non-standard residue; d: D form. The star is where a group is joined. Decanoyl = CCCCCCCCCC(=O)*; Leu(ol) = CC(C)C[C@H](N)CO; Iva = CC[C@](C)(N)C(=O)O; Aib = CC(C)(N)C(=O)O

Key:
Experiment in all cases: DTP human tumour cell line panel, 48 h
COLO 205 colon = test system: COLO 205 colon
EKVX NSCLC = test system: EKVX NSCLC
SK-MEL-2 melanoma = test system: SK-MEL-2 melanoma
CCRF-CEM leukemia = test system: CCRF-CEM leukemia
MCF7 breast = test system: MCF7 breast
U251 CNS = test system: U251 CNS
SK-MEL-28 melanoma = test system: SK-MEL-28 melanoma
NCI-H522 lung = test system: NCI-H522 lung
HOP-92 NSCLC = test system: HOP-92 NSCLC
LOX IMVI melanoma = test system: LOX IMVI melanoma
OVCAR-3 ovarian = test system: OVCAR-3 ovarian
SW-620 colon = test system: SW-620 colon
OVCAR-4 ovarian = test system: OVCAR-4 ovarian
SR leukemia = test system: SR leukemia
PC-3 prostate = test system: PC-3 prostate
KM12 colon = test system: KM12 colon
BT-549 breast = test system: BT-549 breast
HOP-62 NSCLC = test system: HOP-62 NSCLC
786-0 renal = test system: 786-0 renal
ACHN renal = test system: ACHN renal
RXF 393 renal = test system: RXF 393 renal
MALME-3M melanoma = test system: MALME-3M melanoma
NCI-H460 lung = test system: NCI-H460 lung
MDA-MB-231 breast = test system: MDA-MB-231 breast
SF-295 CNS = test system: SF-295 CNS
UACC-62 melanoma = test system: UACC-62 melanoma
T-47D breast = test system: T-47D breast
NCI-H23 lung = test system: NCI-H23 lung
SF-268 CNS = test system: SF-268 CNS
SN12C renal = test system: SN12C renal
SK-OV-3 ovarian = test system: SK-OV-3 ovarian
M14 melanoma = test system: M14 melanoma
HS 578T breast = test system: HS 578T breast
MDA-MB-435 = test system: MDA-MB-435
A549 NSCLC = test system: A549 NSCLC
OVCAR-8 ovarian = test system: OVCAR-8 ovarian
RPMI-8226 leukemia = test system: RPMI-8226 leukemia
IGROV1 ovarian = test system: IGROV1 ovarian
UACC-257 melanoma = test system: UACC-257 melanoma
HCT-15 colon = test system: HCT-15 colon
HCT-116 colon = test system: HCT-116 colon
HL-60(TB) leukemia = test system: HL-60(TB) leukemia
K-562 leukemia = test system: K-562 leukemia
HT29 colon = test system: HT29 colon
NCI-H226 lung = test system: NCI-H226 lung
A498 renal = test system: A498 renal
CAKI-1 renal = test system: CAKI-1 renal
UO-31 renal = test system: UO-31 renal
NCI/ADR-RES ovarian = test system: NCI/ADR-RES ovarian
SF-539 CNS = test system: SF-539 CNS
SNB-19 CNS = test system: SNB-19 CNS
HCC-2998 colon = test system: HCC-2998 colon
OVCAR-5 ovarian = test system: OVCAR-5 ovarian
DU-145 prostate = test system: DU-145 prostate
SK-MEL-5 melanoma = test system: SK-MEL-5 melanoma
TK-10 renal = test system: TK-10 renal
SNB-75 CNS = test system: SNB-75 CNS
MOLT-4 leukemia = test system: MOLT-4 leukemia

Compound `CCCCCCCCCC(=O)NC(C)(C)C(=O)N1CCC[C@H]1C(=O)N[C@@H](CC(C)C)C(=O)N[C@@](C)(CC)C(=O)N[C@@H](CCC(N)=O)C(=O)N[C@H](CCC(N)=O)C(=O)NC(C)(C)C(=O)NC(C)(C)C(=O)N[C@@H](CCC(N)=O)C(=O)N[C@H](CC(C)C)C(=O)N[C@H](CO)CC(C)C` (Decanoyl-[Aib]PL[Iva]Q[dQ][Aib][Aib]Q[dL][Leu(ol)]) has a GI50 (COLO 205 colon) of 1860 nM, a TGI (COLO 205 colon) of 3.6 µM and a GI50 (EKVX NSCLC) of 1700 nM. It also gave a TGI (EKVX NSCLC) of 3.17 µM, a GI50 (SK-MEL-2 melanoma) of 1740 nM and a TGI (SK-MEL-2 melanoma) of 3.24 µM. It also gave a GI50 (CCRF-CEM leukemia) of 1810 nM, a TGI (CCRF-CEM leukemia) of 3.6 µM and a GI50 (MCF7 breast) of 1780 nM. It also gave a TGI (MCF7 breast) of 3.45 µM, a GI50 (U251 CNS) of 1720 nM and a TGI (U251 CNS) of 3.22 µM. It also gave a GI50 (SK-MEL-28 melanoma) of 1690 nM, a TGI (SK-MEL-28 melanoma) of 3.06 µM and a GI50 (NCI-H522 lung) of 1730 nM. It also gave a TGI (NCI-H522 lung) of 3.33 µM, a GI50 (HOP-92 NSCLC) of 1640 nM and a TGI (HOP-92 NSCLC) of 3.14 µM. For the same compound, the GI50 (LOX IMVI melanoma) was 1730 nM, the TGI (LOX IMVI melanoma) was 3.29 µM and the GI50 (OVCAR-3 ovarian) was 1790 nM. For the same compound, the TGI (OVCAR-3 ovarian) was 3.25 µM, the GI50 (SW-620 colon) was 1860 nM and the TGI (SW-620 colon) was 3.46 µM. For the same compound, the GI50 (OVCAR-4 ovarian) was 2050 nM, the TGI (OVCAR-4 ovarian) was 4.63 µM and the GI50 (SR leukemia) was 2250 nM. The GI50 (PC-3 prostate) was 1710 nM, the TGI (PC-3 prostate) was 3.3 µM and the GI50 (KM12 colon) was 1830 nM. It also gave a TGI (KM12 colon) of 3.33 µM, a GI50 (BT-549 breast) of 1850 nM and a TGI (BT-549 breast) of 3.3 µM. For the same compound, the GI50 (HOP-62 NSCLC) was 1950 nM, the TGI (HOP-62 NSCLC) was 3.8 µM and the GI50 (786-0 renal) was 1840 nM. The TGI (786-0 renal) was 3.5 µM, the GI50 (ACHN renal) was 1860 nM and the TGI (ACHN renal) was 3.6 µM. It also gave a GI50 (RXF 393 renal) of 1930 nM, a TGI (RXF 393 renal) of 3.45 µM and a GI50 (MALME-3M melanoma) of 1510 nM. It also gave a TGI (MALME-3M melanoma) of 2890 nM, a GI50 (NCI-H460 lung) of 1890 nM and a TGI (NCI-H460 lung) of 3.47 µM. For the same compound, the GI50 (MDA-MB-231 breast) was 1760 nM, the TGI (MDA-MB-231 breast) was 3.26 µM and the GI50 (SF-295 CNS) was 1750 nM. For the same compound, the TGI (SF-295 CNS) was 3.26 µM, the GI50 (UACC-62 melanoma) was 1630 nM and the TGI (UACC-62 melanoma) was 2980 nM. For the same compound, the GI50 (T-47D breast) was 2020 nM, the TGI (T-47D breast) was 4.31 µM and the GI50 (NCI-H23 lung) was 1790 nM. The TGI (NCI-H23 lung) was 3.52 µM, the GI50 (SF-268 CNS) was 1760 nM and the TGI (SF-268 CNS) was 3.31 µM. The GI50 (SN12C renal) was 1700 nM, the TGI (SN12C renal) was 3.17 µM and the GI50 (SK-OV-3 ovarian) was 1930 nM. For the same compound, the TGI (SK-OV-3 ovarian) was 3.8 µM, the GI50 (M14 melanoma) was 1770 nM and the TGI (M14 melanoma) was 3.29 µM. The GI50 (HS 578T breast) was 1810 nM, the TGI (HS 578T breast) was 3.51 µM and the GI50 (MDA-MB-435) was 1750 nM. The TGI (MDA-MB-435) was 3.16 µM, the GI50 (A549 NSCLC) was 1860 nM and the TGI (A549 NSCLC) was 3.85 µM. For the same compound, the GI50 (OVCAR-8 ovarian) was 1840 nM, the TGI (OVCAR-8 ovarian) was 3.66 µM and the GI50 (RPMI-8226 leukemia) was 1920 nM. It also gave a TGI (RPMI-8226 leukemia) of 3.95 µM, a GI50 (IGROV1 ovarian) of 1800 nM and a TGI (IGROV1 ovarian) of 3.36 µM. The GI50 (UACC-257 melanoma) was 1750 nM, the TGI (UACC-257 melanoma) was 3.24 µM and the GI50 (HCT-15 colon) was 1900 nM. For the same compound, the TGI (HCT-15 colon) was 3.79 µM, the GI50 (HCT-116 colon) was 1850 nM and the TGI (HCT-116 colon) was 3.49 µM. It also gave a GI50 (HL-60(TB) leukemia) of 1870 nM, a TGI (HL-60(TB) leukemia) of 3.97 µM and a GI50 (K-562 leukemia) of 2440 nM. It also gave a GI50 (HT29 colon) of 2010 nM, a TGI (HT29 colon) of 3.83 µM and a GI50 (NCI-H226 lung) of 1880 nM. It also gave a TGI (NCI-H226 lung) of 3.86 µM, a GI50 (A498 renal) of 1980 nM and a TGI (A498 renal) of 3.55 µM. It also gave a GI50 (CAKI-1 renal) of 1700 nM, a TGI (CAKI-1 renal) of 3.13 µM and a GI50 (UO-31 renal) of 1600 nM. For the same compound, the TGI (UO-31 renal) was 2950 nM, the GI50 (NCI/ADR-RES ovarian) was 1830 nM and the TGI (NCI/ADR-RES ovarian) was 3.55 µM. The GI50 (SF-539 CNS) was 1720 nM, the TGI (SF-539 CNS) was 3.11 µM and the GI50 (SNB-19 CNS) was 1700 nM. For the same compound, the TGI (SNB-19 CNS) was 3.1 µM, the GI50 (HCC-2998 colon) was 1800 nM and the TGI (HCC-2998 colon) was 3.39 µM. It also gave a GI50 (OVCAR-5 ovarian) of 1700 nM, a TGI (OVCAR-5 ovarian) of 3.07 µM and a GI50 (DU-145 prostate) of 1750 nM. It also gave a TGI (DU-145 prostate) of 3.13 µM, a GI50 (SK-MEL-5 melanoma) of 1740 nM and a TGI (SK-MEL-5 melanoma) of 3.17 µM. For the same compound, the GI50 (TK-10 renal) was 1780 nM, the TGI (TK-10 renal) was 3.26 µM and the GI50 (SNB-75 CNS) was 1460 nM. The TGI (SNB-75 CNS) was 2790 nM, the GI50 (MOLT-4 leukemia) was 2290 nM and the TGI (MOLT-4 leukemia) was 5.9 µM.
